Results published in paper PMC12314892, “Macrocyclic Phage Display for Identification of Selective Protease Substrates” (Journal of the American Chemical Society, 2025).
One block for each compound: values may come before it. *1 amine or outer side, *2 acyl side, *3 side chain or, on linkers, in order; H or OH if unused. Where a SMILES comes first, the peptide text is derived from it. Bridges are numbered along the chain shown (N, C = ends). The star is where a group is joined. X1 = NC(=O)Cc1cc(=O)oc2cc(NC(=O)[C@@H]3CCCN3C(=O)Cn3nc(C[*:1])cc3C[*:2])ccc12; X2 = NC(=O)Cc1cc(=O)oc2cc(NC(=O)[C@@H]3CCCN3C(=O)Cn3nc(C[*:2])cc3C[*:1])ccc12; AMC = Cc1cc(=O)oc2cc(N*)ccc12; Cbz = O=C(OCc1ccccc1)*

Columns and labels:
[1] = target: T1, Recombinant Human Prolyl Oligopeptidase/PREP (Homo sapiens, UniProt P48147); assay: Kinetic evaluation of substrates; assay type: biochemical; conditions: for SI (selectivity index, coefficient of the proteases kcat/Km), FAPα vs PREP: kcat/KM FAPα over kcat/KM PREP
T1 construct: purchased R&D Systems 4308-SE-010
T1 sequence (P48147 1-710): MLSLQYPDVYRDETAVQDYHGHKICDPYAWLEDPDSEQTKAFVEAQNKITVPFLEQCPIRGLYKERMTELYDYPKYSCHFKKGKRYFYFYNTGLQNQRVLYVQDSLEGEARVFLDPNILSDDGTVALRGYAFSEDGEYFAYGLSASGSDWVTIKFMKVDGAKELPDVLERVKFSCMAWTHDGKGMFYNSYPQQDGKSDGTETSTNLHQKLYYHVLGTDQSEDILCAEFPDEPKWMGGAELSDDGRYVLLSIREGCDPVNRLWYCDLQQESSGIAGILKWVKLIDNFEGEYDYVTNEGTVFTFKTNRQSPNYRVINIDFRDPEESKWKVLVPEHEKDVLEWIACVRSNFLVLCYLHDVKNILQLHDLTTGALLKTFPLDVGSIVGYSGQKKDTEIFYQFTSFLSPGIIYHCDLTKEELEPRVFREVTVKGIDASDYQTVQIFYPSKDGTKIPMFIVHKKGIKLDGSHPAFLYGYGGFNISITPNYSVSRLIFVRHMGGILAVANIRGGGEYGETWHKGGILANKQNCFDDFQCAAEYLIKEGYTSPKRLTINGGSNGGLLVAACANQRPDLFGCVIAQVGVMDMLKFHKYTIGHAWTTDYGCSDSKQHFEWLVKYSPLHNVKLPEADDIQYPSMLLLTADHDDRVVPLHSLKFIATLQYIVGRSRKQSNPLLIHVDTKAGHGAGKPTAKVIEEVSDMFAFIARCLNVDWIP
Method: (§1) Fluorogenic Substrate Cleavage Assay
(§2) The following proteases were used for the activity assay: Recombinant Human FAPα Protein, CF (R&D Systems, Catalog No.: 3715-SE-010), Recombinant Human Prolyl Oligopeptidase/PREP Protein, CF (R&D Systems, Catalog No.: 4308-SE-010). Recombinant Human DPP9 Protein, CF (R&D Systems, Catalog No.: 5419-SE-010). Recombinant Human DPP4 Protein (Sino Biological, Catalog No.: 10688-HNCH-10). The buffers used for the activity assay were: FAPα - 50 mM Tris, 1 M NaCl, 1 mg/mL BSA, pH 7.5, PREP- 25 mM Tris, 250 mM NaCl, 2.5 mM DTT, pH 7.5 (DTT was freshly added immediately before use), DPP9- 25 mM Tris, pH 7.5, DPP4- 25 mM Tris, pH
(§3) 7.5. The following commercial substrates were used: zGP-AMC (Bachem,Catalog No.: […]
(§4) conducted in Greiner Bio-One black microplates of 384 wells and polystyrene F-bottom (Catalog No.: 784076). All compounds were dissolved in DMSO at a concentration of 10 mM and then diluted into the respective buffer to the desired final concentration. The protease was added to the specified concentration before the fluorescence measurements. For fluorescence measurements, 2 μL of substrate was further diluted into 6 μL of buffer, followed by addition of 2 μL of enzyme in buffer. For no enzyme controls 2 μL of substrate was diluted into 8 μL of buffer.
(§5) The fluorescence was measured using a Cytation 3 plate reader (BioTek). All experiments have at least three technical replicates. All assays were conducted at 37°C for a minimum of 90 min, unless otherwise noted. Fluorescence measurements were performed at ex/em, 355/460 nm for ACC substrates. The substrates velocity was quantified by calculating the slope of the linear phase of the reaction as relative fluorescence units (RFU) per min.
(§6) Kinetic evaluation of substrates
To order to determine the kcat/KM, the previously indicated proteases were tested under their corresponding buffer conditions. Substrates were serially diluted in water, and 2 µL of each dilution was added to 6 µL of assay buffer in a 384-well plate. The plate was briefly centrifuged to ensure proper mixing and to eliminate air bubbles. Fluorescence measurements were initiated by adding 2 µL of the protease solution (prepared in activity buffer) to each well, yielding a final volume of 10 µL. Reactions were monitored at 37 °C for 60 minutes using a plate reader set to excitation/emission wavelengths of 355/460 nm. Control wells without enzyme contained 8 µL of assay buffer, instead of enzyme, and 2 µL of substrate. All measurements were performed in at least triplicate. The initial linear portion of each fluorescence progress curve was used to calculate initial reaction velocities (RFU/min). Calibration curves using free AMC were generated under the corresponding buffer and assay conditions to allow extrapolation of RFU values to µM concentrations. Michaelis-Menten kinetic parameters K M, kcat and kcat/,KM were determined using […]
GraphPad Prism version 10.4.1. […]
determined due to poor model fit. […]

Recombinant Human DPP9 = target: T2, Recombinant Human DPP9 (Homo sapiens, UniProt Q86TI2); assay: Kinetic evaluation of substrates; assay type: biochemical; conditions: for SI (selectivity index, coefficient of the proteases kcat/Km), FAPα vs DPP9: kcat/KM FAPα over kcat/KM DPP9
T2 construct: purchased R&D Systems 5419-SE-010
Method: as §1, §2, §3, §4, §5, §6
To order to determine the kcat/KM, the previously indicated proteases were tested under their corresponding buffer conditions. Substrates were serially diluted in water, and 2 µL of each dilution was added to 6 µL of assay buffer in a 384-well plate. The plate was briefly centrifuged to ensure proper mixing and to eliminate air bubbles. Fluorescence measurements were initiated by adding 2 µL of the protease solution (prepared in activity buffer) to each well, yielding a final volume of 10 µL. Reactions were monitored at 37 °C for 60 minutes using a plate reader set to excitation/emission wavelengths of 355/460 nm. Control wells without enzyme contained 8 µL of assay buffer, instead of enzyme, and 2 µL of substrate. All measurements were performed in at least triplicate. The initial linear portion of each fluorescence progress curve was used to calculate initial reaction velocities (RFU/min). Calibration curves using free AMC were generated under the corresponding buffer and assay conditions to allow extrapolation of RFU values to µM concentrations. Michaelis-Menten kinetic parameters K M, kcat and kcat/,KM were determined using GraphPad Prism version 10.4.1. In some cases, KM, kcat or kcat/,KM values could not be reliably determined due to poor model fit. […]

[2] = 6 nM DPP9, 37 °C, 60 min, Michaelis-Menten fit, triplicates
[3] = 3 nM PREP, 37 °C, 60 min, Michaelis-Menten fit, triplicates

T2 sequence (Q86TI2 whole entry): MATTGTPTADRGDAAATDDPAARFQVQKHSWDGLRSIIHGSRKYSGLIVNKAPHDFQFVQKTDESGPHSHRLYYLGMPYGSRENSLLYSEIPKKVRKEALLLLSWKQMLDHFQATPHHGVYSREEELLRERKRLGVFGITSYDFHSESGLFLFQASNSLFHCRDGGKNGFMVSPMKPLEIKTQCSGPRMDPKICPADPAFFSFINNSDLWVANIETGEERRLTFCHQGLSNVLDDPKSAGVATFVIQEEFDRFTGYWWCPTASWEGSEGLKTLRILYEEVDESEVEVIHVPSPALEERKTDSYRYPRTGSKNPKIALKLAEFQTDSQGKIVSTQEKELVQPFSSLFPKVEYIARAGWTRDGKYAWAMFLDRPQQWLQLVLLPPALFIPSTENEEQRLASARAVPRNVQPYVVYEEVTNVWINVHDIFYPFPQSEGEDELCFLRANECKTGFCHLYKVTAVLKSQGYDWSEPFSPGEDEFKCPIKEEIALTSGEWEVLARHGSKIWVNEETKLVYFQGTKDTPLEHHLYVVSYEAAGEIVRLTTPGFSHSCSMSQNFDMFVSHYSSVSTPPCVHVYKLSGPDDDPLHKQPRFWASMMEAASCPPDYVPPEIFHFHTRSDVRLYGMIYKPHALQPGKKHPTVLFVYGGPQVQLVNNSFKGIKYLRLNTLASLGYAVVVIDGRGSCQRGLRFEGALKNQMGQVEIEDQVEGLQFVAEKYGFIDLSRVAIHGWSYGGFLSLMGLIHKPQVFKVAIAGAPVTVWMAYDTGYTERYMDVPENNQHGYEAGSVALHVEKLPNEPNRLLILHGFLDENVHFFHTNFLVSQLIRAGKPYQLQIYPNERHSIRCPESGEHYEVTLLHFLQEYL

Compound: CC(C)[C@@H]1NC(=O)[C@@H](N)CSCc2cc(n(CC(=O)N3CCC[C@H]3C(=O)Nc3ccc4c(CC(N)=O)cc(=O)oc4c3)n2)CSC[C@@H](C(=O)NCC(N)=O)NC(=O)[C@H](CC(=O)O)NC(=O)[C@H](C)NC(=O)[C@H](CC(N)=O)NC(=O)[C@H](CCC(N)=O)NC(=O)[C@H](Cc2ccccc2)NC(=O)[C@H](CO)NC1=O [FAP-33.2A6] (H-CVSFQNADCG-NH2; linker 1-9 via X1; N-terminus assumed)
- Ki ([1]; 3 nM PREP, substrate inhibition, 37 °C): 34.4 µM
- SI (selectivity index, coefficient of the proteases kcat/Km), FAPα vs PREP [1]: FAPα >>>PREP
- SI (selectivity index, coefficient of the proteases kcat/Km), FAPα vs DPP9 (Recombinant Human DPP9): FAPα >>>DPP9

Compound: CC(C)C[C@@H]1NC(=O)[C@H](CC(N)=O)NC(=O)[C@H](CCC(N)=O)NC(=O)[C@H](Cc2ccccc2)NC(=O)[C@H](CO)NC(=O)[C@H](C(C)C)NC(=O)[C@@H](N)CSCc2cc(nn2CC(=O)N2CCC[C@H]2C(=O)Nc2ccc3c(CC(N)=O)cc(=O)oc3c2)CSC[C@@H](C(=O)NCC(N)=O)NC(=O)[C@H](CC(=O)O)NC1=O [FAP-33.2] (H-CVSFQNLDCG-NH2; linker 1-9 via X2; N-terminus assumed)
- SI (selectivity index, coefficient of the proteases kcat/Km), FAPα vs PREP [1]: FAPα >>>PREP
- SI (selectivity index, coefficient of the proteases kcat/Km), FAPα vs DPP9 (Recombinant Human DPP9): FAPα >>>DPP9

- SI (selectivity index, coefficient of the proteases kcat/Km), DPP4 vs PREP ([1]; kcat/KM DPP4 over kcat/KM PREP): DPP4>>>PREP
- Km (Recombinant Human DPP9; 6 nM DPP9, 25 mM Tris, pH 7.5, 37 °C, 60 min, Michaelis-Menten fit, triplicates, ± SD): 61 ± 11 µM
- kcat (Recombinant Human DPP9; [2]): 0.21 s⁻¹
- kcat/KM (Recombinant Human DPP9; [2]): 3455 M⁻¹ s⁻¹
- SI (selectivity index, coefficient of the proteases kcat/Km), DPP4 vs DPP9 (Recombinant Human DPP9; kcat/KM DPP4 over kcat/KM DPP9): 110
Compound: Cc1cc(=O)oc2cc(NC(=O)[C@@H]3CCCN3C(=O)CN)ccc12 [GP-AMC] (H-Gly-Pro-{AMC})

- Km ([1]; 3 nM PREP, 25 mM Tris, 250 mM NaCl, 2.5 mM DTT, pH 7.5, 37 °C, 60 min, triplicates, ± SD, FAP33.2 and FAP33.2A6 showed substrate inhibition): 161 ± 91 µM
- kcat [1, 3]: 113.05 s⁻¹
- kcat/KM [1, 3]: 633723 M⁻¹ s⁻¹
- SI (selectivity index, coefficient of the proteases kcat/Km), FAPα vs PREP [1]: 0.24
Compound: Cc1cc(=O)oc2cc(NC(=O)[C@@H]3CCCN3C(=O)CNC(=O)OCc3ccccc3)ccc12 [zGP-AMC] (Cbz-Gly-Pro-{AMC})
